Reference: patent publication US8541588B2, “Sulfonamide derivatives” (Pfizer Limited, priority 2009, dated 2013)

Molecular target: T1, Nav1.7 (or SCN9A) channel; HEK cells stably transfected with hSCN9A (Homo sapiens, UniProt Q15858)
T1 construct: expressed in transfected cells
Test: Nav1.7 block, PatchXpress 7000 automated whole-cell voltage clamp, estimated IC50 (EIC50)
Type: cell-based
Conditions: estimated IC50; hSCN9A HEK cells, PatchXpress platform; Examples 815-1040

T1 sequence (Q15858 whole entry): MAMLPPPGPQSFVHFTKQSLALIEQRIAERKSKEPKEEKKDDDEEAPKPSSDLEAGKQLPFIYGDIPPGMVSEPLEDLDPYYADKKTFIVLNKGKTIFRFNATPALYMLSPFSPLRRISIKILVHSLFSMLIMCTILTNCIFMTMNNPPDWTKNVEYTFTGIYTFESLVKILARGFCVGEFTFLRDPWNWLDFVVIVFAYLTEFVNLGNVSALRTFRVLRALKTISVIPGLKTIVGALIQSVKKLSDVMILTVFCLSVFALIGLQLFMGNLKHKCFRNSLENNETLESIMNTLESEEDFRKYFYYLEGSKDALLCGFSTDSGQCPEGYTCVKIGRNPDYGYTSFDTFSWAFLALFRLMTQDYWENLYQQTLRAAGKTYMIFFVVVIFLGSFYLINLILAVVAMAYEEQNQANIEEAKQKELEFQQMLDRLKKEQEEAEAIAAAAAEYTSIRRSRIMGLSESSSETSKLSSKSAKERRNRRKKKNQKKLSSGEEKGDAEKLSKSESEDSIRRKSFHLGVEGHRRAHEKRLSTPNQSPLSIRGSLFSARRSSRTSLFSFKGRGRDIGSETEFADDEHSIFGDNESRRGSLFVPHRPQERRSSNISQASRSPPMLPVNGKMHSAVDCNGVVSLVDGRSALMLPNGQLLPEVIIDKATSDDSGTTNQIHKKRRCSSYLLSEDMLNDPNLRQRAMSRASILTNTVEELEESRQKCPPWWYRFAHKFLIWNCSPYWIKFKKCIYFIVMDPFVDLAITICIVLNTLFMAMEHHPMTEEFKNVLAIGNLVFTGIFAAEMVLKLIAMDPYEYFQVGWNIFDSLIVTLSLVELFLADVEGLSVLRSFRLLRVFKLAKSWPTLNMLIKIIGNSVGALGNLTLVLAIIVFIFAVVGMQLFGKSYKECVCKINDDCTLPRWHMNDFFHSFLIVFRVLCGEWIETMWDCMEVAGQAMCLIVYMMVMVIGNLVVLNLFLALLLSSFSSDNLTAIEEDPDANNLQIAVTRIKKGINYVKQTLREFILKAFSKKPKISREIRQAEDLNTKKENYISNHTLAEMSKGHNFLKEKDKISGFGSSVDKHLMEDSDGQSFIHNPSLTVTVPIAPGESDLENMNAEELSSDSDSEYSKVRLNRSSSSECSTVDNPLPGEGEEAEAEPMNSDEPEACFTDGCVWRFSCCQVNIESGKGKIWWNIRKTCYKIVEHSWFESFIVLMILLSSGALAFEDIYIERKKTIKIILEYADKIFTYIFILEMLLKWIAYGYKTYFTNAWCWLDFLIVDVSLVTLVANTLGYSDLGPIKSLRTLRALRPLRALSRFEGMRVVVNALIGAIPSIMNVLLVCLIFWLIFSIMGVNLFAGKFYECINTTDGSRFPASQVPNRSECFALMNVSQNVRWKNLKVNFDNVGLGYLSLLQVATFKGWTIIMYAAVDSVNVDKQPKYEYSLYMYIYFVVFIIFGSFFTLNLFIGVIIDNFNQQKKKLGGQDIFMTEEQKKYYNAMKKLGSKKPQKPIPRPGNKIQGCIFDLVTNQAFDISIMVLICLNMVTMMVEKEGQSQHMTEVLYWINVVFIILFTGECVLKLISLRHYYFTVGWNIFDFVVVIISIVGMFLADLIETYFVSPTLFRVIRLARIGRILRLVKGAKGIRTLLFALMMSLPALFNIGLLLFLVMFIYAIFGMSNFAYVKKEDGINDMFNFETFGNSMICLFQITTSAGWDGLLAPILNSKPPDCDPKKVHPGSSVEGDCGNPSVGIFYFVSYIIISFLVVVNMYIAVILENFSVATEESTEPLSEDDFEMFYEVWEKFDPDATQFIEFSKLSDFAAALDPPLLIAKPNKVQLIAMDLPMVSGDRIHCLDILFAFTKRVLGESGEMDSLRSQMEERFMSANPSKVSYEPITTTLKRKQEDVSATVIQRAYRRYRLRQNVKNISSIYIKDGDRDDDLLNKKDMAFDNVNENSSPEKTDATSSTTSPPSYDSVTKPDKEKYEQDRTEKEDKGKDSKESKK

Row | Structure (SMILES) | IC50 [nM]
1 | N#Cc1cc(S(=O)(=O)Nc2ncc(Cl)s2)ccc1Oc1cc(F)ccc1-c1ccn[nH]1 [Example 992, N-(5-chloro-1,3-thiazol-2-yl)-3-cyano-4-[5-fluoro-2-(1H-pyrazol-5-yl)phenoxy]benzenesulfonamide] | 540
2 | N#Cc1cnn(-c2ccc(Oc3ccc(S(=O)(=O)Nc4nccs4)cc3C#N)cc2)c1 [Example 994, 3-cyano-4-[4-(4-cyano-1H-pyrazol-1-yl)phenoxy]-N-1,3-thiazol-2-ylbenzenesulfonamide] | 9500
3 | COC(=O)N1CC(c2cc(Cl)ccc2Oc2ccc(S(=O)(=O)Nc3nccs3)cc2C#N)C1 [Example 995, methyl 3-(5-chloro-2-{2-cyano-4-[(1,3-thiazol-2-ylamino)sulfonyl]phenoxy}phenyl)azetidine-1-carboxylate] | 1300
4 | CCOC(=O)c1cnn(-c2ccc(Oc3ccc(S(=O)(=O)Nc4nccs4)cc3C#N)cc2)c1 [Example 996, ethyl 1-(4-{2-cyano-4-[(1,3-thiazol-2-ylamino)sulfonyl]phenoxy}phenyl)-1H-pyrazole-4-carboxylate] | 760
5 | N#Cc1cc(S(=O)(=O)Nc2ncns2)ccc1Oc1ccc(Cl)cc1-c1ccc(C(=O)O)cc1 [Example 999, 5′-chloro-2′-{2-cyano-4-[(1,2,4-thiadiazol-5-ylamino)sulfonyl]phenoxy}biphenyl-4-carboxylic acid] | 3300
6 | N#Cc1cc(S(=O)(=O)Nc2ncns2)ccc1Oc1ccc(Cl)cc1-c1cccc(CC(=O)O)c1 [Example 1000, (5′-chloro-2′-{2-cyano-4-[(1,2,4-thiadiazol-5-ylamino)sulfonyl]phenoxy}biphenyl-3-yl)acetic acid] | 130
7 | N#Cc1cc(S(=O)(=O)Nc2ncns2)ccc1Oc1ccc(Cl)cc1-c1ccc(CC(=O)O)cc1 [Example 1001, (5′-chloro-2′-{2-cyano-4-[(1,2,4-thiadiazol-5-ylamino)sulfonyl]phenoxy}biphenyl-4-yl)acetic acid] | 820
8 | N#Cc1cc(S(=O)(=O)Nc2ncns2)ccc1Oc1ccc(Cl)cc1-c1cccc(C(=O)O)c1 [Example 1002, 5′-chloro-2′-{2-cyano-4-[(1,2,4-thiadiazol-5-ylamino)sulfonyl]phenoxy}biphenyl-3-carboxylic acid] | 140
9 | COC(=O)c1cccc(-c2cc(Cl)ccc2Oc2ccc(S(=O)(=O)Nc3ncns3)cc2C#N)c1 [Example 1003, methyl 5′-chloro-2′-{2-cyano-4-[(1,2,4-thiadiazol-5-ylamino)sulfonyl]phenoxy}biphenyl-3-carboxylate] | 20
10 | N#Cc1cc(S(=O)(=O)Nc2ccc(F)cn2)ccc1Oc1ccc(F)cc1C1CC1 [Example 1004, 3-cyano-4-(2-cyclopropyl-4-fluorophenoxy)-N-(5-fluoropyridin-2-yl)benzenesulfonamide] | 7100
11 | N#Cc1cc(S(=O)(=O)Nc2ccc(F)cn2)ccc1Oc1ccccc1C1CCCCO1 (centres unmarked) [Example 1005, 3-cyano-N-(5-fluoropyridin-2-yl)-4-[2-(tetrahydro-2H-pyran-2-yl)phenoxy]benzenesulfonamide] | >3000
12 | N#Cc1cc(S(=O)(=O)Nc2cccs2)ccc1Oc1ccccc1-c1ccccc1 [Example 1007, 4-(biphenyl-2-yloxy)-3-cyano-N-2-thienylbenzenesulfonamide] | 3300
13 | CN(C)C(=O)c1cccc(-c2ccccc2)c1Oc1ccc(S(=O)(=O)Nc2ncns2)cc1C#N [Example 1008, 2-{2-cyano-4-[(1,2,4-thiadiazol-5-ylamino)sulfonyl]phenoxy}-N,N-dimethylbiphenyl-3-carboxamide] | 740
14 | Cc1ncccc1-c1cc(Cl)ccc1Oc1ccc(S(=O)(=O)Nc2ncns2)cc1C#N [Example 1009, 4-[4-chloro-2-(2-methylpyridin-3-yl)phenoxy]-3-cyano-N-1,2,4-thiadiazol-5-ylbenzenesulfonamide] | 21
15 | Cc1nccnc1-c1cc(Cl)ccc1Oc1ccc(S(=O)(=O)Nc2ncns2)cc1C#N [Example 1010, 4-[4-chloro-2-(3-methylpyrazin-2-yl)phenoxy]-3-cyano-N-1,2,4-thiadiazol-5-ylbenzenesulfonamide] | 820
16 | Cc1cnccc1-c1cc(Cl)ccc1Oc1ccc(S(=O)(=O)Nc2ncns2)cc1C#N [Example 1011, 4-[4-chloro-2-(3-methylpyridin-4-yl)phenoxy]-3-cyano-N-1,2,4-thiadiazol-5-ylbenzenesulfonamide] | 28
17 | CN1CC(n2nccc2-c2cc(Cl)ccc2Oc2cc(F)c(S(=O)(=O)Nc3ncccn3)cc2Cl)C1 [Example 1012, 5-chloro-4-{4-chloro-2-[1-(1-methylazetidin-3-yl)-1H-pyrazol-5-yl]phenoxy}-2-fluoro-N-pyrimidin-2-ylbenzenesulfonamide] | 270
18 | Nc1cc(-c2cc(C(F)(F)F)ccc2Oc2ccc(S(=O)(=O)Nc3ccncn3)cc2Cl)ccn1 [Example 1013, 4-[2-(2-aminopyridin-4-yl)-4-(trifluoromethyl)phenoxy]-3-chloro-N-pyrimidin-4-ylbenzenesulfonamide] | 4.8

Row | Structure (SMILES) | IC50 [nM]
19 | Nc1cc(-c2cc(Cl)ccc2Oc2ccc(S(=O)(=O)Nc3cccnn3)cc2Cl)ccn1 [Example 1014, 4-[2-(2-aminopyridin-4-yl)-4-chlorophenoxy]-3-chloro-N-pyridazin-3-ylbenzenesulfonamide] | 10
20 | CN1CC(n2nccc2-c2cc(OC(F)(F)F)ccc2Oc2cc(F)c(S(=O)(=O)Nc3nncs3)cc2Cl)C1 [Example 1017, 5-chloro-2-fluoro-4-{2-[1-(1-methylazetidin-3-yl)-1H-pyrazol-5-yl]-4-(trifluoromethoxy)phenoxy}-N-1,3,4-thiadiazol-2-ylbenzenesulfonamide] | 2.1
21 | O=S(=O)(Nc1nncs1)c1ccc(Oc2ccc(Cl)cc2-c2ccnnc2)c(C(F)(F)F)c1 [Example 1018, 4-(4-chloro-2-pyridazin-4-ylphenoxy)-N-1,3,4-thiadiazol-2-yl-3-(trifluoromethyl)benzenesulfonamide] | 230
22 | Nc1n[nH]cc1-c1cc(Cl)ccc1Oc1cc(F)c(S(=O)(=O)Nc2ncccn2)cc1Cl [Example 1019, 4-[2-(3-amino-1H-pyrazol-4-yl)-4-chlorophenoxy]-5-chloro-2-fluoro-N-pyrimidin-2-ylbenzenesulfonamide] | 22
23 | Nc1cc(-c2cc(Cl)ccc2Oc2cc(F)c(S(=O)(=O)Nc3cscn3)cc2F)ccn1 [Example 1020, 4-[2-(2-aminopyridin-4-yl)-4-dchlorophenoxy]-2,5-ifluoro-N-1,3-thiazol-4-ylbenzenesulfonamide] | 19
24 | CC(C)(C#N)c1ccc(Oc2cc(F)c(S(=O)(=O)Nc3nncs3)cc2Cl)c(-c2ccnnc2)c1 [Example 1021, 5-chloro-4-[4-(1-cyano-1-methylethyl)-2-pyridazin-4-ylphenoxy]-2-fluoro-N-1,3,4-thiadiazol-2-ylbenzenesulfonamide] | 1300
25 | CN1CC(n2nccc2-c2cc(C(F)(F)F)ccc2Oc2cc(F)c(S(=O)(=O)Nc3cscn3)cc2F)C1 [Example 1023, 2,5-Difluoro-4-{2-[1-(1-methylazetidin-3-yl)-1H-pyrazol-5-yl]-4-(trifluoromethyl)phenoxy}-N-1,3-thiazol-4-ylbenzenesulfonamide] | 4
26 | N#Cc1cc(S(=O)(=O)Nc2ncns2)ccc1Oc1ccc(Cl)cc1-c1ccnc(OC2CCC2)c1 [Example 1025, 4-{4-Chloro-2-[2-(cyclobutyloxy)pyridin-4-yl]phenoxy}-3-cyano-N-1,2,4-thiadiazol-5-ylbenzenesulfonamide] | 4.1
27 | CN(C)c1cc(-c2cc(Cl)ccc2Oc2ccc(S(=O)(=O)Nc3ncns3)cc2C#N)ccn1 [Example 1026, 4-{4-Chloro-2-[2-(dimethylamino)pyridin-4-yl]phenoxy}-3-cyano-N-1,2,4-thiadiazol-5-ylbenzenesulfonamide] | 1.6
28 | N#Cc1cc(S(=O)(=O)Nc2ncns2)ccc1Oc1ccc(Cl)cc1-c1ccnc(N2CCNCC2)n1 [Example 1030, 4-[4-Chloro-2-(2-piperazin-1-ylpyrimidin-4-yl)phenoxy]-3-cyano-N-1,2,4-thiadiazol-5-ylbenzenesulfonamide] | 0.7
29 | Nc1cc(-c2cc(Cl)ccc2Oc2cc(F)c(S(=O)(=O)Nc3cccnn3)cc2Cl)ccn1 [Example 1031, 4-[2-(2-aminopyridin-4-yl)-4-chlorophenoxy]-5-chloro-2-fluoro-N-pyridazin-3-ylbenzenesulfonamide] | 29
30 | O=S(=O)(Nc1cscn1)c1cc(F)c(Oc2ccc(Cl)cc2-c2ccnc(CN3CCC3)c2)cc1F [Example 1032, 4-{2-[2-(Azetidin-1-ylmethyl)pyridin-4-yl]-4-chlorophenoxy}-2,5-difluoro-N-1,3-thiazol-4-ylbenzenesulfonamide] | 13
31 | CCN1CC(n2nccc2-c2cc(C(F)(F)F)ccc2Oc2ccc(S(=O)(=O)Nc3ncns3)cc2C#N)C1 [Example 1033, 3-Cyano-4-{2-[1-(1-ethylazetidin-3-yl)-1H-pyrazol-5-yl]-4-(trifluoromethyl)phenoxy}-N-1,2,4-thiadiazol-5-ylbenzenesulfonamide] | 3.5
32 | O=S(=O)(Nc1nncs1)c1cc(Cl)c(Oc2cc(F)c(C(F)(F)F)cc2-c2ccnnc2)cc1F [Example 1034, 5-Chloro-2-fluoro-4-[5-fluoro-2-pyridazin-4-yl-4-(trifluoromethyl)phenoxy]-N-1,3,4-thiadiazol-2-ylbenzenesulfonamide] | 11
33 | N#Cc1cc(S(=O)(=O)Nc2ncns2)ccc1Oc1cc(F)c(C(F)(F)F)cc1-c1ccnnc1 [Example 1035, 3-Cyano-4-[5-fluoro-2-pyridazin-4-yl-4-(trifluoromethyl)phenoxy]-N-1,2,4-thiodiazol-5-ylbenzenesulfonamide] | 3.8
34 | Nc1n[nH]cc1-c1cc(Cl)ccc1Oc1cc(F)c(S(=O)(=O)Nc2ccncn2)cc1Cl [Example 1036, 4-[2-(3-amino-1H-pyrazol-4-yl)-4-chlorophenoxy]-5-chloro-2-fluoro-N-pyrimidin-4-ylbenzenesulfonamide] | 21
35 | Cc1cc(S(=O)(=O)Nc2nncs2)c(F)cc1Oc1ccc(OC(F)(F)F)cc1-c1ccnnc1 [Example 1037, 2-fluoro-5-methyl-4-[2-pyridazin-4-yl-4-(trifluoromethoxy)phenoxy]-N-1,3,4-thiadiazol-2-ylbenzenesulfonamide] | 12
